Experimental data published in publication PMC3076384, “A Dopa Decarboxylase Modulating the Immune Response of Scallop Chlamys farreri” (PLoS ONE, 2011).

Biological target: T1, rCfDDC (recombinant CfDDC, dopa decarboxylase of Chlamys farreri) (Azumapecten farreri, UniProt F8QPW5)
T1 construct: gene DDC; ~65 kDa on gel
T1 sequence (F8QPW5 1-560): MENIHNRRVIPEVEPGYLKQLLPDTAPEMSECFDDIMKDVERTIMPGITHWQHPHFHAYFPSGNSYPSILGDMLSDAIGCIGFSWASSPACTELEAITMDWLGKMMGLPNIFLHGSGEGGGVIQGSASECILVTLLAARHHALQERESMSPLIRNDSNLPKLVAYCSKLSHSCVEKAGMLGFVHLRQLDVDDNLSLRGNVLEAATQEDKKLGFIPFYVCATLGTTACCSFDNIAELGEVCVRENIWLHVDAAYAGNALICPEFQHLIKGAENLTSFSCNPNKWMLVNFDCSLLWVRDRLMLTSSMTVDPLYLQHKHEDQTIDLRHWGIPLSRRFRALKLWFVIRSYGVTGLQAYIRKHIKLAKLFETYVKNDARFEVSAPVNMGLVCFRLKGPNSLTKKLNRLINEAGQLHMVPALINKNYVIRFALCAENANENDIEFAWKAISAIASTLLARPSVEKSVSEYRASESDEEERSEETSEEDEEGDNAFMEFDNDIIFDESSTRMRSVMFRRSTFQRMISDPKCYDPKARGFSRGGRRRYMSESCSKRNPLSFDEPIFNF
Experiment: dopamine formation measured by ELISA kit
Format: biochemical
Conditions: 30 mM L-Dopa; 0.4 mM PLP; PBS pH 7.4; 37 °C; 1 h

N[C@@H](Cc1ccc(O)c(O)c1)C(=O)O [L-Dopa]
dopamine formation measured by ELISA kit: there was detectable dopamine in the reactions with the addition of rCfDDC
